Patent US3935309A, “Synergistic combinations of phosphonomycin and bacteriostatic agents” (Merck & Co., Inc., priority 1974, dated 1976)
Like-named read-outs stand apart in the source and are kept apart here.

Columns and labels:
Staphylococcus aureus [1] = assay: criss-cross MIC method in nutrient broth (Example 2); type: cell-based; conditions: 37°C, 24 hours, two experiments on different days
Protocol: This method involved the simultaneous determination of the MIC (minimum inhibitory concentration) of each member of a pair of antibiotics and of combinations of the two in nutrient broth (NB) containing 0.2% yeast extract (YE). Serial two-fold dilutions were made throughout the experiment, and the starting inoculum consisted of approximately 25,000 cells/ml. of Staphylococcus aureus. Incubation was at 37°C. for 24 hours. Identical experiments were performed on two different days.

Escherichia coli 2017 = assay: Combined antibiotic therapy of Escherichia coli infection in mice (Example 5); type: in vivo, mice infected with Escherichia coli 2017; set-up: ED50: unit not given beside the values; conditions: for ED50 / % of effective dose: first test
Description: (§1) For example, using Escherichia coli 2017 as the infecting agent, sodium phosphonomycin was titrated alone and in the presence 5 and also in the presence of 0.5γtetracycline, while tetracycline was titrated alone and in the presence of 50γ, and also in the presence of 5γof sodium phosphonomycin. The two drugs were given by the subcutaneous route at separate sites on the ventral surface of the mouse. Such therapy was given only at the time of infection for the Escherichia coli and Pseudomonas aeruginosa tests but both at the time of infection and 6 hours later for all other tests. Infection was given intraperitoneally using broth suspensions of the test organism.

Proteus vulgaris = assay: MIC by two-fold serial broth dilution, alone and in combination (Example 1); type: cell-based; conditions: for MIC: Proteus vulgaris, read-out: MIC of 2nd Subst.
Protocol: (§2) The MIC (minimum inhibitory concentration) of phosphonomycin and each of the other antibiotics by itself was determined before the combination synergy experiment was begun, as follows: 2 ml. of a double strength solution in sterile distilled water of the highest strength to be tested (usually 1000γ) was added to a tube of double strength nutrient broth (NB) and mixed thoroughly. Two-fold serial dilutions were then made by transferring 2 ml. to the next tube (1 × NB) and so on for approximately 12 tubes. The tubes were inoculated with one drop each of a 1:50 dilution of a culture adjusted to a Lumetron 60 reading in NB + 0.2% yeast extract so as to provide a concentration of cells of approximately 25,000/ml. The tubes were then incubated at 37°C. and examined for growth at 24, 48 and 72 hours.
(§3) In the combination experiment, the MIC value obtained as described above was used as approximately the midpoint of the range to be tested for each of the two antibiotics of the combination. In a manner similar to the above, two-fold dilutions of the first substance in the combination were made except that 1.8 ml. volumes were used and a 2.2 × strength solution of both the antibiotic and the NB were made. The second antibiotic of the combination was added to duplicate rows of serial dilutions of the first substance as follows: 0.2 ml. in NB of a [formula] and a [formula] respectively, of the second substance was added to each tube in a row of serial dilutions of the first antibiotic. The final concentration that resulted enabled the determination of the effect of both MIC/4 and MIC/8 of each substance in the presence of from approximately 32 MIC to [formula] of the other. Inocula were added as in the initial single MIC experiment.

Streptococcus faecalis = assay: as above; type: cell-based; conditions: for MIC: Enterococcus faecalis, read-out: MIC of 2nd Subst.
Protocol: as §2, §3

pathogenic bacteria = assay: in vitro combination tests with various pathogens (general description); type: cell-based; conditions: for potentiation when combined with phosphonomycin: various strains of pathogenic bacteria
Description: Other experimental results have shown that novobiocin, chlortetracycline and sulfisoxazole are potentiated when combined with phosphonomycin and tested with various strains of pathogenic bacteria.

Pseudomonas aeruginosa = assay: MIC by two-fold serial broth dilution, alone and in combination (Example 1); type: cell-based; conditions: for MIC: Pseudomonas aeruginosa, read-out: MIC of 2nd Subst.
Protocol: as §2, §3

Staphylococcus aureus [2] = assay: as above; type: cell-based; conditions: for MIC: Staphylococcus aureus, read-out: MIC of 2nd Subst.
Protocol: as §2, §3

Klebsiella pneumoniae = assay: as above; type: cell-based
Protocol: as §2, §3

Pseudomonas stutzeri = assay: as above; type: cell-based
Protocol: as §2, §3

[3] = tested on: Pseudomonas aeruginosa 3210; assay: Combined antibiotic therapy of experimental infection in mice (Example 5); type: in vivo, mice infected with Pseudomonas aeruginosa 3210; conditions: for s.c. ED50: 10 LD50
Description: as §1

[4] = tested on: Klebsiella pneumoniae "B"; assay: as above; type: in vivo, mice infected with Klebsiella pneumoniae "B"; conditions: for s.c. ED50: 7 LD50
Description: as §1

[5] = tested on: Streptococcus pyogenes 3009; assay: as above; type: in vivo, mice infected with Streptococcus pyogenes 3009; conditions: 6 LD50
Description: as §1

[6] = chloramphenicol repeat test, 7 LD50, chloramphenicol titrated, phosphonomycin constant 5
[7] = chloramphenicol repeat test, 7 LD50, chloramphenicol titrated, phosphonomycin constant 50
[8] = chloramphenicol test 1, 9 LD50, chloramphenicol titrated, phosphonomycin constant 10
[9] = chloramphenicol test 1, 9 LD50, chloramphenicol titrated, phosphonomycin constant 100
[10] = in presence of MIC/2 instead of ≤ MIC/4
[11] = novobiocin itself, at the levels tested
[12] = alone, therapy at 0 and 6 hours, phosphonomycin as sodium salt
[13] = combination of 54% tetracycline with .5% sodium phosphonomycin
[14] = phosphonomycin titrated in the presence of 0.5γ tetracycline
[15] = tetracycline titrated in the presence of 50γ sodium phosphonomycin
[16] = tetracycline repeat test, 7 LD50, tetracycline titrated, phosphonomycin constant 0.5
[17] = tetracycline repeat test, 7 LD50, tetracycline titrated, phosphonomycin constant 50
[18] = tetracycline test 1, 9 LD50, alone
[19] = tetracycline test 1, 9 LD50, tetracycline titrated, phosphonomycin constant 5
[20] = tetracycline test 1, 9 LD50, tetracycline titrated, phosphonomycin constant 50
[21] = tetracycline titrated, phosphonomycin constant 500
[22] = tetracycline titrated, phosphonomycin constant 1000

Compound: O=C(N[C@H](CO)[C@H](O)c1ccc([N+](=O)[O-])cc1)C(Cl)Cl [Chloramphenicol]
- MIC (Staphylococcus aureus [1]; Staphylococcus aureus, 24 h, read-out: CLM MIC, alone): 7.8 µg/mL
- CLM MIC (Staphylococcus aureus [1]; alone, listed as CLM): 3.9 µg/mL
- % ED50 (Escherichia coli 2017; chloramphenicol repeat test, 7 LD50, alone): 100%
- s.c. ED50 (Escherichia coli 2017; chloramphenicol repeat test, 7 LD50, alone, single dose at 0 hour, phosphonomycin as sodium salt): 120 µg
- % ED50 (Escherichia coli 2017; [6]): 39%
- s.c. ED50 (Escherichia coli 2017; [6]): 47 µg
- % ED50 (Escherichia coli 2017; [7]): 17%
- s.c. ED50 (Escherichia coli 2017; [7]): 20 µg
- % ED50 (Escherichia coli 2017; chloramphenicol repeat test, 7 LD50, phosphonomycin titrated, chloramphenicol constant 5): 4%
- % ED50 (Escherichia coli 2017; chloramphenicol repeat test, 7 LD50, phosphonomycin titrated, chloramphenicol constant 50): 42%
- % ED50 (Escherichia coli 2017; chloramphenicol test 1, 9 LD50, alone): 100%
- % ED50 (Escherichia coli 2017; [8]): 55%
- s.c. ED50 (Escherichia coli 2017; [8]): 250 µg
- % ED50 (Escherichia coli 2017; [9]): 24%
- s.c. ED50 (Escherichia coli 2017; [9]): 107 µg
- % ED50 (Escherichia coli 2017; chloramphenicol test 1, 9 LD50, phosphonomycin titrated, chloramphenicol constant 3): 1%
- % ED50 (Escherichia coli 2017; chloramphenicol test 1, 9 LD50, phosphonomycin titrated, chloramphenicol constant 30): 7%

Compound: CN(C)[C@@H]1C(O)=C(C(N)=O)C(=O)[C@@]2(O)C(O)=C3C(=O)c4c(O)ccc(Cl)c4[C@@](C)(O)[C@H]3C[C@@H]12 [Chlortetracycline]
- MIC of 2nd Subst. in presence of ≤ MIC/4 of phosphonomycin (Proteus vulgaris): 0.25
- MIC (Proteus vulgaris): 2 µg/mL
- MIC of 2nd Subst. in presence of ≤ MIC/4 of phosphonomycin (Streptococcus faecalis): 0.5
- MIC (Streptococcus faecalis): 0.5 µg/mL
- potentiation when combined with phosphonomycin (pathogenic bacteria): potentiated

Compound: CC[C@H]1OC(=O)[C@H](C)[C@@H](O[C@H]2C[C@@](C)(OC)[C@@H](O)[C@H](C)O2)[C@H](C)[C@@H](O[C@@H]2O[C@H](C)C[C@H](N(C)C)[C@H]2O)[C@](C)(O)C[C@@H](C)C(=O)[C@H](C)[C@@H](O)[C@]1(C)O [Erythromycin]
- MIC (Proteus vulgaris): 1000 µg/mL
- MIC of 2nd Subst. in presence of phosphonomycin (Proteus vulgaris; [10]): 500 µg/mL
- MIC (Pseudomonas aeruginosa): > 16000 µg/mL
- MIC of 2nd Subst. in presence of ≤ MIC/4 of phosphonomycin (Pseudomonas aeruginosa; resistant growth present): 2000
- MIC of 2nd Subst. in presence of ≤ MIC/4 of phosphonomycin (Staphylococcus aureus [2]): 2
- MIC (Staphylococcus aureus [2]): 8 µg/mL
- MIC of 2nd Subst. in presence of ≤ MIC/4 of phosphonomycin (Streptococcus faecalis): 16
- MIC (Streptococcus faecalis): 32 µg/mL

Compound: CO[C@@H]1[C@@H](OC(N)=O)[C@@H](O)[C@H](Oc2ccc3c(O)c(NC(=O)c4ccc(O)c(CC=C(C)C)c4)c(=O)oc3c2C)OC1(C)C [Novobiocin]
- MIC of 2nd Subst. in presence of ≤ MIC/4 of phosphonomycin (Klebsiella pneumoniae): < 2
- MIC (Klebsiella pneumoniae; Klebsiella pneumoniae, alone, read-out: MIC of 2nd Subst.): 32 µg/mL
- MIC of 2nd Subst. in presence of ≤ MIC/4 of phosphonomycin (Proteus vulgaris): 3.9
- MIC (Proteus vulgaris): 32 µg/mL
- MIC of 2nd Subst. in presence of ≤ MIC/4 of phosphonomycin (Pseudomonas aeruginosa): 62.5
- MIC (Pseudomonas aeruginosa): 250 µg/mL
- MIC of 2nd Subst. in presence of ≤ MIC/4 of phosphonomycin (Pseudomonas stutzeri): 8
- MIC (Pseudomonas stutzeri; Stutzerimonas stutzeri, alone, read-out: MIC of 2nd Subst.): 32 µg/mL
- MIC (Staphylococcus aureus [2]): 0.06 µg/mL
- MIC of 2nd Subst. in presence of phosphonomycin (Staphylococcus aureus [2]; [10]): 0.015 µg/mL
- MIC of 2nd Subst. in presence of ≤ MIC/4 of phosphonomycin (Streptococcus faecalis): 4
- MIC (Streptococcus faecalis): 4 µg/mL
- s.c. ED50 ([3]; alone, therapy at 0 hour only, phosphonomycin as sodium salt): > 10000 µg
- s.c. ED50 ([3]; novobiocin titrated, phosphonomycin > 20): > 10000 µg
- s.c. ED50 ([3]; novobiocin with phosphonomycin >200): > 10000 µg
- protection of mice [3, 11]: did not protect
- s.c. ED50 [4, 12]: > 2500 µg
- s.c. ED50 ([4]; novobiocin titrated, phosphonomycin > 100): > 2500 µg
- s.c. ED50 ([4]; novobiocin with phosphonomycin > 10): > 2500 µg
- protection of mice [4, 11]: did not protect
- control of pathogens by combination with phosphonomycin (pathogenic bacteria): effective in controlling pathogens which cannot be effectively controlled by either antibiotic separately
- potentiation when combined with phosphonomycin (pathogenic bacteria): potentiated

Compound: CN(C)C1C(=O)C(C(N)=O)=C(O)C2(O)C(=O)C3=C(O)c4c(O)cccc4C(C)(O)C3CC12 (stereo not drawn) [Tetracycline]
- ED50 (Escherichia coli 2017; alone): 50 γ
- % of effective dose (Escherichia coli 2017; [13]): 54%
- % of effective dose (Escherichia coli 2017; [14]): 1%
- % of effective dose (Escherichia coli 2017; [15]): 25%
- ED50 (Escherichia coli 2017; titrated in the presence of 50γ sodium phosphonomycin): 13 γ
- % ED50 (Escherichia coli 2017; tetracycline repeat test, 7 LD50, alone): 100%
- s.c. ED50 (Escherichia coli 2017; tetracycline repeat test, 7 LD50, alone, single dose at 0 hour, phosphonomycin as sodium salt): 31 µg
- % ED50 (Escherichia coli 2017; tetracycline repeat test, 7 LD50, phosphonomycin titrated, tetracycline constant 1): 3%
- % ED50 (Escherichia coli 2017; tetracycline repeat test, 7 LD50, phosphonomycin titrated, tetracycline constant 10): 32%
- % ED50 (Escherichia coli 2017; [16]): 23%
- s.c. ED50 (Escherichia coli 2017; [16]): 7 µg
- % ED50 (Escherichia coli 2017; [17]): 100%
- s.c. ED50 (Escherichia coli 2017; [17]): 31 µg
- % ED50 (Escherichia coli 2017; [18]): 100%
- % ED50, Combined % (Escherichia coli 2017; [18]): 100%
- s.c. ED50 (Escherichia coli 2017; tetracycline test 1, 9 LD50, alone, single dose at 0 hour, phosphonomycin as sodium salt): 50 µg
- % ED50 (Escherichia coli 2017; tetracycline test 1, 9 LD50, phosphonomycin titrated, tetracycline constant 0.5): 1%
- % ED50 (Escherichia coli 2017; tetracycline test 1, 9 LD50, phosphonomycin titrated, tetracycline constant 5): 10%
- % ED50 (Escherichia coli 2017; [19]): 54%
- s.c. ED50 (Escherichia coli 2017; [19]): 27 µg
- % ED50 (Escherichia coli 2017; [20]): 25%
- s.c. ED50 (Escherichia coli 2017; [20]): 13 µg
- enhancement of tetracycline activity (Escherichia coli 2017; two tests, constant quantity of sodium phosphonomycin): enhanced
- % ED50 ([5]; alone): 100%
- s.c. ED50 [5, 12]: 55 µg
- % ED50 [5, 21]: 36%
- s.c. ED50 [5, 21]: 35 µg
- % ED50 [5, 22]: 33%
- s.c. ED50 [5, 22]: 18 µg

Compound: C[C@@H]1O[C@@H]1P(=O)(O)O [sodium phosphonomycin]
- ED50 (Escherichia coli 2017; alone): 1000 γ
- % of effective dose (Escherichia coli 2017; [13]): .5%
- % of effective dose (Escherichia coli 2017; [14]): 100%
- % of effective dose (Escherichia coli 2017; [15]): 5%
- ED50 (Escherichia coli 2017; titrated in the presence of 0.5γ tetracycline): 1000 γ
- enhancement of sodium phosphonomycin activity (Escherichia coli 2017; two tests, constant quantity of tetracycline): In neither test did a constant quantity of tetracycline enhance sodium phosphonomycin activity
- interaction of combination ([4]; 1 mg. of novobiocin included in the dose): could be considered as potentiation
- sodium phosphonomycin required to protect the mice ([4]; 1 mg. of novobiocin included in the dose vs its absence): less sodium phosphonomycin was required to protect the mice

Compound: Cc1noc(NS(=O)(=O)c2ccc(N)cc2)c1C [sulfisoxazole]
- potentiation when combined with phosphonomycin (pathogenic bacteria): potentiated
